# Laboratory results taken from US20240025880A1 (CHIESI FARMACEUTICI S.P.A., priority 2020, published 2024).
# Biological target: T1, h P2X3 (Homo sapiens, UniProt P56373)
# T1 sequence (P56373 1-397): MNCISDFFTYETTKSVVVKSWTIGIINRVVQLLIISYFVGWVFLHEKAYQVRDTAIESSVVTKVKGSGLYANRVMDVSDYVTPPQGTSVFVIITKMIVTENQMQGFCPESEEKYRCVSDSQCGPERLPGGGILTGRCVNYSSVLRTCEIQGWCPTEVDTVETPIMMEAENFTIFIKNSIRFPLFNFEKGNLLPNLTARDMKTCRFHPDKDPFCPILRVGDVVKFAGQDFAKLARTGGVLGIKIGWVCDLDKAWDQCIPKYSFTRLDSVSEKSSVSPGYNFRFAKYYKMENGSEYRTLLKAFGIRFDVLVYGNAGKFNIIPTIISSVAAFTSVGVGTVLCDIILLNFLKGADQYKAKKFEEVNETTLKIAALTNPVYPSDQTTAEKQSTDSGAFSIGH
# Test: In vitro electrophysiology assay for P2X3 (automated whole-cell patch clamp, α,β-MeATP agonist)
# Type: cell-based
# Settings: Table 2; 800 nM α,β-MeATP, peak current; read-out: h P2X3 (pIC50 range of activity) (converted)
# Protocol: In Vitro Electrophysiology Assay for P2X3
# Cells expressing P2X3 receptors were grown according to standard practice and maintained at 37° C. in a 5% humidified CO2 atmosphere. The cells were seeded into T175 flask 2 days prior to the day of the assay and dissociated from the flasks using TrypLE when grown to confluence of 80-90%. The dissociated cells were resuspended in serum free media at a cell density of 3×10^6 cells/ml and loaded onto the Sophion Qube automated patch-clamp system. The extracellular assay buffer contained 145 mM NaCl, 4 mM KCl, 2 mM CaCl2, 1 mM MgCl2, 10 mM HEPES, and 10 mM glucose at pH 7.4. The intracellular assay solution contained 140 mM CsF, 10 mM NaCl, 10 mM EGTA, 10 mM HEPES at pH 7.2. Agonist stock solutions were prepared in H2O and diluted in bath solution prior to use. All antagonists were prepared as 10 mM stock solutions in DMSO and diluted in bath solution prior to use. All experiments were performed under the whole-cell patch clamp configuration at room temperature with 384 individual cells being voltage clamped at −60 mV simultaneously on the Sophion Qube instrument. Two baseline responses were established with the application of α,β-MeATP (800 nM), with the subsequent agonist applications being washed out using extracellular assay buffer containing 0.5 U/ml apyrase. Following the second agonist application, antagonist was incubated in the absence of α,β-MeATP for 10 minutes. After antagonist preincubation, 800 nM α,β-MeATP and antagonist were co-administered to determine the inhibitory effect of the antagonist. One concentration of an antagonist was assessed against a single cell, with different concentrations of the antagonist applied to other cells on the 384 recording substrate. The control P2X3 current amplitude was taken from the peak current amplitude from the second agonist response prior to preincubation with antagonist. The peak P2X3 current amplitude in the presence of antagonist was used to calculate the inhibitory effect at each concentration of the antagonist according to the following equation:
# Percentage inhibition of P2X3=(P2X3 control peak amplitude−P2X3 antagonist peak amplitude)/P2X3 control peak amplitude)*100
# Concentration-response curves were constructed from ten different concentrations with each concentration of antagonist tested on at least two individual cells. The concentration of the antagonist to inhibit P2X3 current by 50% (IC50) was determined by fitting the data with the following equation:
# Y=a+[(b−a)/(1+10^((log c−x)d)]
# Where ‘a’ is minimum response, ‘b’ is maximum response, ‘c’ is IC50 and ‘d’ is Hill slope.
row,IC50 [nM],Structure (SMILES)
1,316 to 3160,"Cc1ccc(CNc2ncnc3c(OC4CCN(C)C4=O)cc(-c4ccc(F)cc4)cc23)nn1 (stereo not drawn) [Example 56, 3-[6-(4-fluorophenyl)-4-[(6-methylpyridazin-3-yl)methylamino]quinazolin-8-yl]oxy-1-methyl-pyrrolidin-2-one]"
2,316 to 3160,"Cc1ccc([C@@H](C)Nc2ncnc3c(S(=O)(=O)N4CCC(O)CC4)cc(-c4ccc(F)cc4)cc23)nn1 [Example 19, (R)-1-((6-(4-fluorophenyl)-4-((1-(6-methylpyridazin-3-yl)ethyl)amino)quinazolin-8-yl)sulfonyl)piperidin-4-ol]"
3,< 316,"C[C@@H](Nc1ncnc2c(OCC(=O)O)cc(-c3ccc(F)cc3)cc12)c1cnc(C(F)(F)F)nc1 [Example 39, (R)-2-((6-(4-fluorophenyl)-4-((1-(2-(trifluoromethyl)pyrimidin-5-yl)ethyl)amino)quinazolin-8-yl)oxy)acetic acid]"
4,< 316,"Cc1nnc(C(C)Nc2ncnc3c(S(=O)(=O)N4CCOCC4)cc(-c4ccc(F)cc4)cc23)s1 (racemic) [Example 12, (Rac)-6-(4-fluorophenyl)-N-(1-(5-methyl-1,3,4-thiadiazol-2-yl)ethyl)-8-(morpholinosulfonyl)quinazolin-4-amine]"
5,< 316,"Cc1ccc(CNc2ncnc3c(OCc4ncco4)cc(-c4ccc(F)cc4)cc23)nn1 [Example 57, 6-(4-fluorophenyl)-N-[(6-methylpyridazin-3-yl)methyl]-8-(oxazol-2-ylmethoxy)quinazolin-4-amine]"
6,316 to 3160,"Cc1ccc([C@@H](C)Nc2ncnc3c(S(=O)(=O)N4CCOCC4)cc(-c4ccc(F)cc4)cc23)nn1 [Example 10, (R)-6-(4-fluorophenyl)-N-(1-(6-methylpyridazin-3-yl)ethyl)-8-(morpholinosulfonyl)quinazolin-4-amine]"
7,< 316,Cc1ccc(CNc2ncnc3c(OCCOCCO)cc(-c4ccc(F)cc4)cc23)nn1 [Example 55]
8,< 316,"Cc1nnc(C(C)Nc2ncnc3c(S(=O)(=O)N(C)C)cc(-c4ccc(F)cc4)cc23)s1 (stereo not drawn) [Example 14, 6-(4-fluorophenyl)-N,N-dimethyl-4-((1-(5-methyl-1,3,4-thiadiazol-2-yl)ethyl)amino)quinazoline-8-sulfonamide]"
9,316 to 3160,"C[C@@H](Nc1ncnc2c(OCC3(C(=O)O)CC3)cc(-c3ccc(F)cc3)cc12)c1cnc(C(F)(F)F)nc1 [Example 41, (R)-1-(((6-(4-fluorophenyl)-4-((1-(2-(trifluoromethyl)pyrimidin-5-yl)ethyl)amino)quinazolin-8-yl)oxy)methyl)cyclopropane-1-carboxylic acid]"
10,316 to 3160,"COC(=O)N1CCC(COc2cc(-c3ccc(F)cc3)cc3c(NCc4ccc(C)nn4)ncnc23)CC1 [Example 64, Methyl 4-[[6-(4-fluorophenyl)-4-[(6-methylpyridazin-3-yl)methylamino]quinazolin-8-yl]oxymethyl]piperidine-1-carboxylate]"
11,< 316,"CCc1noc(COc2cc(-c3ccc(F)cc3)cc3c(NCc4ccc(C)nn4)ncnc23)n1 [Example 59, 8-[(3-ethyl-1,2,4-oxadiazol-5-yl)methoxy]-6-(4-fluorophenyl)-N-[(6-methylpyridazin-3-yl)methyl]quinazolin-4-amine]"
12,< 316,C[C@@H](Nc1ncnc2c(S(=O)(=O)N3CCOCC3)cc(-c3ccc(F)cc3)cc12)c1cnc(C(F)(F)F)nc1 [Example 11]
13,< 316,"Cc1nc([C@@H](C)Nc2ncnc3c(S(=O)(=O)N4CCC(O)CC4)cc(-c4ccc(F)cc4)cc23)no1 [Example 20, (R)-1-((6-(4-fluorophenyl)-4-((1-(5-methyl-1,2,4-oxadiazol-3-yl)ethyl)amino)quinazolin-8-yl)sulfonyl)piperidin-4-ol]"
14,316 to 3160,"Cc1nnc(C(C)Nc2ncnc3c(S(=O)(=O)N4CCC(F)(F)C4)cc(-c4ccc(F)cc4)cc23)s1 (stereo not drawn) [Example 18, 8-((3,3-difluoropyrrolidin-1-yl)sulfonyl)-6-(4-fluorophenyl)-N-(1-(5-methyl-1,3,4-thiadiazol-2-yl)ethyl)quinazolin-4-amine]"
15,3160 to 31600,"Cc1ccc([C@@H](C)Nc2ncnc3c([S+]([O-])C4COC4)cc(-c4ccc(F)cc4)cc23)nn1 (stereo partly drawn) [Example 29, 6-(4-fluorophenyl)-N-((R)-1-(6-methylpyridazin-3-yl)ethyl)-8-(oxetan-3-ylsulfinyl)quinazolin-4-amine]"
16,316 to 3160,CC(=O)N1CC[C@H](Oc2cc(-c3ccc(F)cc3)cc3c(N[C@H](C)c4cnc(C(F)(F)F)nc4)ncnc23)C1 [Example 31]
17,316 to 3160,"Cc1ccc(CNc2ncnc3c(OCC(=O)NCC(F)(F)F)cc(-c4ccc(F)cc4)cc23)nn1 [Example 61, 2-[6-(4-fluorophenyl)-4-[(6-methylpyridazin-3-yl)methylamino]quinazolin-8-yl]oxy-N-(2,2,2-trifluoroethyl)acetamide]"
18,316 to 3160,C[C@@H](Nc1ncnc2c(OC3CCN(CC(F)(F)F)CC3)cc(-c3ccc(F)cc3)cc12)c1cnc(C(F)(F)F)nc1 [Example 36]
19,< 316,"C[C@@H](Nc1ncnc2c(OCC(=O)NS(=O)(=O)c3ccccc3)cc(-c3ccc(F)cc3)cc12)c1cnc(C(F)(F)F)nc1 [Example 40, (R)-2-((6-(4-fluorophenyl)-4-((1-(2-(trifluoromethyl)pyrimidin-5-yl)ethyl)amino)quinazolin-8-yl)oxy)-N-(phenylsulfonyl)acetamide]"
20,316 to 3160,"COC(=O)N1CCCC(COc2cc(-c3ccc(F)cc3)cc3c(NCc4ccc(C)nn4)ncnc23)C1 (stereo not drawn) [Example 66, Methyl 3-[6-(4-fluorophenyl)-4-[(6-methylpyridazin-3-yl)methylamino]quinazolin-8-yl]oxymethyl]piperidine-1-carboxylate]"
21,316 to 3160,"Cc1ccc(CNc2ncnc3c(OCC4(C(F)(F)F)CC4)cc(-c4ccc(F)cc4)cc23)nn1 [Example 51, 6-(4-fluorophenyl)-N-[(6-methylpyridazin-3-yl)methyl]-8-[[1-(trifluoromethyl)cyclopropyl]methoxy]quinazolin-4-amine]"
22,< 316,"Cc1ccc(-c2cc(OCC(F)F)c3ncnc(NCc4ccc(C)nn4)c3c2)nc1 [Example 8, 8-(2,2-Difluoroethoxy)-N-((6-methylpyridazin-3-yl)methyl)-6-(5-methylpyridin-2-yl) quinazolin-4-amine]"
23,316 to 3160,"Cc1ccc(CNc2ncnc3c(OC4CN(C(=O)OC(C)(C)C)C4)cc(-c4ccc(F)cc4)cc23)nn1 [Example 52, tert-butyl 3-[6-(4-fluorophenyl)-4-[(6-methylpyridazin-3-yl)methylamino]quinazolin-8-yl]oxyazetidine-1-carboxylate]"
24,316 to 3160,"COC(=O)N1CCC(COc2cc(-c3ccc(F)cc3)cc3c(NCc4ccc(C)nn4)ncnc23)C1 (stereo not drawn) [Example 67, Methyl 3-[[6-(4-fluorophenyl)-4-[(6-methylpyridazin-3-yl)methylamino]quinazolin-8-yl]oxymethyl]pyrrolidine-1-carboxylate]"
25,316 to 3160,"Cc1ccc(CNc2ncnc3c(OCC(F)F)cc(-c4ccc(F)cn4)cc23)nn1 [Example 4, 8-(2,2-difluoroethoxy)-6-(5-fluoropyridin-2-yl)-N-((6-methylpyridazin-3-yl)methyl)quinazolin-4-amine]"
26,316 to 3160,"CSc1cc(-c2ccc(F)cc2)cc2c(N[C@H](C)c3ccc(C)nn3)ncnc12 [Example 26, (R)-6-(4-fluorophenyl)-N-(1-(6-methylpyridazin-3-yl)ethyl)-8-(methylthio)quinazolin-4-amine]"
27,3160 to 31600,"Cc1nnc(C(C)Nc2ncnc3c(OCC(F)F)cc(-c4ccc(F)cn4)cc23)s1 (single isomer, unassigned; enantiomer 2) [Example 7, Single enantiomer 2 of 8-(2,2-difluoroethoxy)-6-(5-fluoro-2-pyridyl)-N-[1-(5-methyl-1,3,4-thiadiazol-2-yl)ethyl]quinazolin-4-amine]"
